What was measured:
[1] = test system: MDA-MB-436 cells; experiment: MDA-MB-436 cell activity test (CellTiter-Glo, 7 days); format: cell-based; conditions: Homo sapiens
Description: Breast tumor cells MDA-MB-436 were purchased from ATCC, the culture medium was Leibovitz's L-15+10% FBS, and the cells were cultured in a CO2-free incubator at 37° C. On day 1, the cells in the exponential growth phase were collected, and the cell suspension was adjusted to 4000 cells/135 μL with the culture medium. 135 μL of the cell suspension was added to each well of a 96-well cell culture plate and incubated overnight. On day 2, compounds at different concentrations were added, and the plate was placed in the incubator and incubated for 7 days. After the incubation was completed, according to operation instructions for a CellTiter-Glo kit (Promega, G7573), 75 μL of CTG solution, which was already pre-melted and equilibrated to room temperature, was added to each well, and the mixture was uniformly mixed for 2 min using a microplate shaker. The plate was placed at room temperature for 10 min, and then […] were measured using an Envision2104 plate reader (PerkinElmer). The inhibition rate was calculated using formula (1), where RLUcompound was the readout of the drug treated group, RLUcontrol was the average value of the vehicle control group, and RLUblank was the average value of the cell-free well. The IC50 value was calculated using GraphPad Prism software

[2] = Pharmacokinetic test in rats; format: in vivo, SD rats
Description: 3.1 Experimental animal: male SD rats, about 220 g, 6-8 weeks old, 6 rats/compound, purchased from Chengdu Ddossy Experimental Animals Co., Ltd.
3.2 Experimental design: on the day of the experiment, 30 SD rats were randomly grouped according to their body weights. The animals were fasted with water available for 12 to 14 h one day before the administration and were fed 4 h after the administration.
(§1) Before and after the administration, 0.15 ml of blood was taken from the orbit of the animals under isoflurane anesthesia and placed in an EDTAK2 centrifuge tube. The blood was centrifuged at 5000 rpm and 4° C. for 10 min to collect plasma. The blood collection time points for the intravenous administration group and intragastric administration group were 0, 5 min, 15 min, 30 min, 1 h, 2 h, 4 h, 6 h, 8 h and 24 h. The brain tissues were collected 24 hours after administration, rinsed with cold physiological saline to remove the residual blood on the surface, drained out and then homogenized. Before analysis and detection, all samples were stored at −80° C. The samples were analyzed quantitatively by LC-MS/MS.

[3] = Pharmacokinetic test in mice; format: in vivo, Balb/c mice
Description: 4.1 Experimental animal: male Balb/c mice, 20-25 g, 12 mice/compound, purchased from Chengdu Ddossy Experimental Animals Co., Ltd.
4.2 Experimental design: on the day of the test, 60 Balb/c mice were randomly grouped according to their body weights. The animals were fasted with water available for 12 to 14 h one day before the administration and were fed 4 h after the administration.
as §1, with “administration, 0.06 mL ofblood” for “administration, 0.15 ml of blood”, “8 h,” for “8 h”, “collected at 30 min, 2 h and 24 h after administration of compounds 12, 15 and 18, respectively. The brain tissues were collected” for “collected”, “after administration of compounds 2 and 5,” for “after administration,”

[4] = Pharmacokinetic test in beagle dogs; format: in vivo
Description: 5.1 Experimental animal: male beagle dogs, about 8-11 kg, 6 beagle dogs/compound, purchased from Beijing Marshall Biotechnology Co., Ltd.
5.2 Test method: on the day of the experiment, 6 beagle dogs were randomly grouped according to their body weights. The animals were fasted with water available for 12 to 14 h one day before the administration and were fed 4 h after the administration. The administration was performed according to Table 7.
Before and after the administration, 1 ml of blood was taken from the jugular veins or limb veins, and placed in an EDTAK2 centrifuge tube. The blood was centrifuged at 5000 rpm and 4° C. for 10 min to collect plasma. The blood collection time points for the intravenous administration group and intragastric administration group were 0, 5 min, 15 min, 30 min, 1 h, 2 h, 4 h, 6 h, 8 h, 10 h, 12 h, 24 h and 48 h. Before analysis and detection, all samples were stored at −80° C. The samples were analyzed quantitatively by LC-MS/MS.

[5] = Pharmacokinetic test in monkeys; format: in vivo, cynomolgus monkeys
Description: 6.1 Experimental animal: male cynomolgus monkeys, 3-5 kg, 3-6 years old, 4 monkeys/compound, purchased from Suzhou Xishan Biotechnology Inc.
6.2 Test method: On the day of the experiment, 8 monkeys were randomly grouped according to their body weights. The animals were fasted with water available for 14 to 18 h one day before the administration, and were fed 4 h after the administration.
Before and after the administration, 1.0 mL of blood was taken from the limb veins and placed in an EDTAK2 centrifuge tube. The blood was centrifuged at 5000 rpm and 4° C. for 10 min to collect plasma. The blood collection time points for the intravenous administration group were 0, 5 min, 15 min, 30 min, 1 h, 2 h, 4 h, 6 h, 8 h, 10 h, 12 h, 24 h and 48 h. Before analysis and detection, all samples were stored at −80° C. The samples were analyzed quantitatively by LC-MS/MS.

[6] = male, SD, rat, iv, rats, i.v. 2.5 mg/kg, plasma
[7] = male, Balb/c, mouse, iv, mice, i.v. 2.5 mg/kg, plasma
[8] = male, dog, iv, beagle dogs, i.v. (0.2 mg/kg), plasma
[9] = male, cynomolgus monkey, iv, monkeys, i.v. (0.5 mg/kg), plasma

## O=C(NC1CC1)c1ccc(N2CCN(Cc3ccc4nc(C(F)F)c(=O)[nH]c4c3F)CC2)c(F)n1 [Compound 12, N-cyclopropyl-5-(4-((2-(difluoromethyl)-5-fluoro-3-oxo-3,4-dihydroquinoxalin-6-yl)methyl)piperazin-1-yl)-6-fluoropicolinamide]
[1]; MDA-MB-436, 168 h, 7 days incubation
  IC50: 10.2 nM
[1]; 10 μM, MDA-MB-436 cells, read-out: Max inh. % 10 μM
  inhibition at 10 µM: 74.5%
[2]; conclusion in words
  pharmacokinetic characteristics in rats: good pharmacokinetic characteristics
[2]; male, SD, rat, brain/plasma, intravenous, 2.5 mg/kg, rats, 24 h after administration, read-out: Brain/Plasma Ratio (24 h)
  Kp at 24 h: 1.5
[2]; [6]
  AUC(0-t): 14500 ± 4760 ng·h/mL
  clearance: 3.13 ± 1.2 mL/min/kg
[2]; male, SD, rat, iv, rats, i.v. 2.5 mg/kg, plasma, read-out: Vdss
  Vd: 0.631 ± 0.12 L/kg
[2]; male, SD, rat, plasma, po, rats, i.g. 10 mg/kg
  bioavailability: ≥ 98%
[2]; male, SD, rat, po, rats, i.g. 10 mg/kg, plasma
  AUC(0-t): 63300 ± 19600 ng·h/mL
[3]; conclusion in words
  pharmacokinetic characteristics in mice: good pharmacokinetic characteristics
[3]; [7]
  AUC(0-t): 19000 ± 3590 ng·h/mL
  clearance: 2.16 ± 0.31 mL/min/kg
[3]; male, Balb/c, mouse, iv, mice, i.v. 2.5 mg/kg, plasma, read-out: Vdss
  Vd: 0.42 ± 0.017 L/kg
[3]; male, Balb/c, mouse, plasma, po, mice, i.g. 10 mg/kg
  bioavailability: ≥ 98%
[3]; male, Balb/c, mouse, po, mice, i.g. 10 mg/kg, plasma
  AUC(0-t): 80800 ng·h/mL
[4]; conclusion in words
  pharmacokinetic characteristics in dogs: good pharmacokinetic characteristics
[4]; [8]
  AUC(0-t): 1950 ± 474 ng·h/mL
  clearance: 3.47 ± 0.98 mL/min/kg
[4]; male, dog, iv, beagle dogs, i.v. (0.2 mg/kg), plasma, read-out: Vdss
  Vd: 1.52 ± 0.45 L/kg
[4]; male, dog, plasma, po, beagle dogs, i.g. (3 mg/kg)
  bioavailability: ≥ 98%
[4]; male, dog, po, beagle dogs, i.g. (3 mg/kg), plasma
  AUC(0-t): 19000 ± 2890 ng·h/mL
[5]; conclusion in words
  pharmacokinetic characteristics in monkeys: good pharmacokinetic characteristics
[5]; [9]
  AUC(0-t): 5470 ± 422 ng·h/mL
  clearance: 1.5 ± 0.13 mL/min/kg
[5]; male, cynomolgus monkey, iv, monkeys, i.v. (0.5 mg/kg), plasma, read-out: Vdss
  Vd: 0.419 ± 0.02 L/kg
[5]; male, cynomolgus monkey, plasma, po, monkeys, i.g. (3 mg/kg)
  bioavailability: 63.2 ± 6.1%
[5]; male, cynomolgus monkey, po, monkeys, i.g. (3 mg/kg), plasma
  AUC(0-t): 20700 ± 1990 ng·h/mL

From patent publication US20250346571A1, “BICYCLIC DERIVATIVE PARP INHIBITOR AND USE THEREOF” (XIZANG HAISCO PHARMACEUTICAL CO., LTD., priority 2022, published 2025)
